System: mouse liver microsomes, LC-MS/MS, half-life
Assay: Inhibitors of Bloom's syndrome helicase: Metabolic Stability Profiling
Details: at 1 µM; hits give high values
Text: Survival of cells and the faithful propagation of the genome depend on elaborate mechanisms of detecting and repairing DNA damage. Treatment of advanced cancer relies on radiation therapy or chemotherapy, which kill cancer cells by causing extensive DNA damage. It is often found, that cancer cells develop resistance to therapy through enhanced activity of DNA repair functions; this has led to an increased interest in developing drugs that interfere with DNA repair, which could sensitize cancer cells to conventional therapy. Bloom syndrome helicase (BLM), is important in resolving abnormal DNA structures formed during replication or homologous recombination. Shutting down the expression of BLM leads to chromosomal instability and higher radiation sensitivity in cultured cells. After the completion of a qHTS campaign, secondary assays, and rounds of medicinal chemistry, a compound was identified to be further characterized through in vitro ADME assays. Mouse liver microsomes are created through broken up endoplasmic reticulum from mouse liver. These liver microsomes contain many drug metabolizing enzymes, such as Cytochome P-450s and flavin-containing monooxygenases. Because metabolism is major way of drug clearance, this is an important result. […]
1uM of compound in incubated in mouse liver microsome; the reference compound is ketanserin. […] Samples are analyzed with LC-MS/MS.

- half-life: 2 h
Compound: O=C(Nc1ccc(F)c(C(F)(F)F)c1)Nc1nnc(-c2ccncc2)s1
